Measured values reported in patent publication US9949489B2, “Methods for control of hemipteran insect stylet sheath structure formation” (The United States of America, as Represented by the …, priority 2015, dated 2018).

What was measured:
[1] = system: D. citri; test: Liquid ACP diet sandwich feeding assay (MFC): inhibition of de novo stylet sheath formation; type: in vivo, Diaphorina citri; set-up: key: −: No effect apparent; +/−: inconclusive; +: apparent slight effect; ++: increased apparent effect; +++: high effect; ++++: very high effect; +++++: complete degradation of sheaths or inhibition of sheath synthesis; conditions: enzyme in liquid ACP diet, about 24 h, 25° C., enzyme amounts and pH per Table 5 (cellulase approx 1 unit/μl)
Protocol: The next step was to determine if addition of cellulase to the diet of D. citri would interfere with stylet sheath formation. A D. citri diet is prepared as described by Hall, David et al., “Research toward an artificial diet for adult Asian citrus psyllid,” Annals of the Entomological Society of America 103.4:611-617 (2010). Approximately 25 D. citri were collected into polystyrene Cellstar 35 mm×10 mm dishes (Griener Bio-One, Monroe, N.C.) that were then sealed using a single layer of Parafilm® M (Pechiney Plastic Packaging Company, Chicago, Ill.). Approximately 99 μl of liquid ACP diet (e.g., diet lacking the solidifying agar component, see Hall, et. al., 2010, supra) was mixed with approximately 1 μl of cellulase (Sigma Aldrich, St. Louis, Mo.) and mixed. […]
Because many biomolecule polymerizing enzymes require divalent cations as cofactors, the effect of ethylenediaminetetraacetic acid (EDTA), a chelator of divalent cations, on ACP SS formation was tested by adding EDTA to the previously described liquid ACP diet (see Hall et al., 2010, supra). […] Uncommon bands between the liquid ACP diet containing EDTA and liquid ACP diet without EDTA (negative control) lanes were cut out and analyzed by Orbitrap (Thermo Scientific, Waltham, Mass.) protein analysis, according to manufacturer's protocol. […]

[2] = system: D. citri; test: as above; type: in vivo, Diaphorina citri; conditions: about 24 h; cellulase approx 1 unit/μl; BAPN 100 mM; EDTA approx 2 mM; proteases per Table 5
Protocol: The next step was to determine if addition of cellulase to the diet of D. citri would interfere with stylet sheath formation. A D. citri diet is prepared as described by Hall, David et al., “Research toward an artificial diet for adult Asian citrus psyllid,” Annals of the Entomological Society of America 103.4:611-617 (2010). Approximately 25 D. citri were collected into polystyrene Cellstar 35 mm×10 mm dishes (Griener Bio-One, Monroe, N.C.) that were then sealed using a single layer of Parafilm® M (Pechiney Plastic Packaging Company, Chicago, Ill.). Approximately 99 μl of liquid ACP diet (e.g., diet lacking the solidifying agar component, see Hall, et. al., 2010, supra) was mixed with approximately 1 μl of cellulase (Sigma Aldrich, St. Louis, Mo.) and mixed. […] layer Parafilm® M surface, which was then covered with another layer of Parafilm® M to form a sandwich (e.g., Parafilm® M—liquid ACP diet with cellulase—Parafilm® M) to allow ACP to feed into the liquid ACP diet containing cellulase. This MFC was then incubated at about 25° C., at about 75% relative humidity, with a light:dark cycle of approximately 14:10 hours for a period of about 24 hours. After about 24 hours, the stylet sheaths were observed using an inverted microscope. FIGS. 3G through 3I are images of three separate locations where D. citri made attempts to feed into the liquid ACP diet containing approximately 1 unit/μl cellulase.
Because many biomolecule polymerizing enzymes require divalent cations as cofactors, the effect of ethylenediaminetetraacetic acid (EDTA), a chelator of divalent cations, on ACP SS formation was tested by adding EDTA to the previously described liquid ACP diet (see Hall et al., 2010, supra). The EDTA was added to the liquid ACP diet at a concentration of approximately 2 mM EDTA in diH2O. Approximately 200 D. citri were placed in plastic Petri dishes. The dishes were covered with a single layer of Parafilm® M to form MFC. […] The MFC plates were incubated at a temperature of about 25° C., a relative humidity of about 75%, and a light/dark cycle of about 14:10 hours duration. Following the 24-hour incubation, the fluid (either liquid ACP diet containing EDTA or just the liquid ACP diet) between the two sheets of plastic was harvested by using a sterile 5 ml syringe and 20-gauge needle which was pushed into the center of the Parafilm® M-fluid-Parafilm® M sandwich, and the fluid was then removed by syringe plunger suction. The harvested fluids were put into sterile 50 ml conical vials, placed at about −80° C. until frozen. Each vial of harvested fluid was then lypholyzed overnight. The lyophilized product was then solubilized in […], placed at about −80° C. until frozen, then each new vial was lyopholyzed overnight. The lyophilized product was then solubilized in approximately 15 μL of approximately 1× Laemmili buffer (Bio-Rad, Hercules, Calif.) containing approximately 5% 2-mercaptoethanol. The sample was loaded onto a sodium dodecyl sulfate polyacrylamide gel (SDS-PAGE) and underwent electrophoresis. The SDS PAGE gel was then stained with coomassie. Uncommon bands between the liquid ACP diet containing EDTA and liquid ACP diet without EDTA (negative control) lanes were cut out and analyzed by Orbitrap (Thermo Scientific, Waltham, Mass.) protein analysis, according to manufacturer's protocol.
After about 24-hour incubation, D. citri feeding sites were observed. […] See also Table 2 and Table 3, infra.

[3] = system: D. citri stylet sheaths (ACP SSs); test: Degradation of preformed, solidified stylet sheaths by enzymes (MFC membrane or slide incubation); set-up: species or system Diaphorina citri; key to Sheath Degradation: −: No effect apparent; +/−: inconclusive; +: apparent slight effect; ++: increased apparent effect; +++: high effect; ++++: very high effect; +++++: complete degradation of sheaths or inhibition of sheath synthesis; conditions: D. citri preformed sheaths; enzyme concentration, pH and temperature per Table 4 (cellulase 1:25, pH 6.0, 60° C.)
Protocol: In order to test cellulase's effect on preformed ACP SSs, formed, solidified stylet sheaths were harvested directly from the surface of an MFC membrane (in these experiments either plastic wrap or parafilm was used) as described herein and in Morgan et al. 2013, supra. Approximately 100 psyllids were placed into an MFC for about 24 hours. The MFCs consisted of D. citri caged individually and/or in groups within 100 mm×15 mm plastic Petri dishes. A single kitchen plastic wrap layer was stretched across the top of each Petri dish to seal the Petri dish from insect escape and to provide a stylet penetrable surface for insect probing.
Several MFCs (the Petri dishes covered with kitchen plastic wrap or parafilm and containing D. citri) were placed into clear Pyrex® baking dishes with the membrane (kitchen plastic wrap or parafilm) side up, and the Pyrex® baking dish is covered with a single layer of clear kitchen plastic wrap to prevent external contaminant interactions with the membrane surface during incubation. MFCs were incubated at a temperature of about 25° C., relative humidity of about 75%, and a light:dark cycle of about […]. […]

- Sheath Degradation [3]: +++++
Substance: Chymopapain from papaya latex: Cysteine peptidase; Sigma #C8526
- Inhibition of Sheath Formation [1]: +++++
- Effect on D. citri stylet sheath formation in liquid ACP diet [2]: capable of inhibiting the formation of ACP SSs
